Laboratory results as given in article PMC10428001 (Cancer research, 2022).
Values joined by “and” are separate entries in the source; they are usually repeats but may differ in a detail not shown here. Equal values may be shown once. Read-outs that look alike come from different tables or passages of the source.

Legend:
[1] = tested on: Ba/F3 cells HER2 A775_G776insYVMA; assay: Ba/F3 cell viability; format: cell-based; conditions: read-out: IC50 (average ± SD)
[2] = tested on: Ba/F3 cells HER2 P780_Y781insGSP; assay: Ba/F3 cell viability; format: cell-based; conditions: read-out: IC50 (average ± SD)
[3] = tested on: Ba/F3 cells HER2 G776delinsVC; assay: Ba/F3 cell viability; format: cell-based; conditions: read-out: IC50 (average ± SD)
[4] = tested on: Ba/F3 cells HER2 M774delinsWLV; assay: Ba/F3 cell viability; format: cell-based; conditions: read-out: IC50 (average ± SD)
Ba/F3 cells HER2 S310F = assay: Ba/F3 cell viability; format: cell-based; conditions: read-out: IC50 (average ± SD)
Ba/F3 cells HER2 L755S = assay: Ba/F3 cell viability; format: cell-based; conditions: read-out: IC50 (average ± SD)
Ba/F3 cells HER2 V777L = assay: Ba/F3 cell viability; format: cell-based; conditions: read-out: IC50 (average ± SD)
Ba/F3 cells HER2 V862I = assay: Ba/F3 cell viability; format: cell-based; conditions: read-out: IC50 (average ± SD)
[5] = tested on: Ba/F3 cells HER2 755_757LREdelinsRP; assay: Ba/F3 cell viability; format: cell-based; conditions: read-out: IC50 (average ± SD)
[6] = tested on: Ba/F3 cells HER2 amplification; assay: Ba/F3 cell viability; format: cell-based; conditions: read-out: IC50 (average ± SD)
MCF7 = assay: Cancer cell viability; format: cell-based, human; conditions: read-out: IC50 (average ± SD)
A-431 = assay: Cancer cell viability; format: cell-based, human; conditions: read-out: IC50 (average ± SD); A-431, epidermoid, EGFR amp, 72 h
H1781 = assay: Cancer cell viability; format: cell-based, human; conditions: read-out: IC50 (average ± SD)
H1819 = assay: Cancer cell viability; format: cell-based; conditions: Homo sapiens, NCI-H1819, 72 h, read-out: IC50 (average ± SD)
Calu-3 [7] = assay: Cancer cell viability; format: cell-based; conditions: Homo sapiens, Calu-3, 72 h, read-out: IC50 (average ± SD)
DFCI 429 = assay: Patient-derived cancer cell viability; format: cell-based, human; conditions: read-out: IC50 (average ± SD)
BT-474 = assay: Cancer cell viability; format: cell-based, human; conditions: read-out: IC50 (average ± SD)
SKBR3 = assay: Cancer cell viability; format: cell-based, human; conditions: read-out: IC50 (average ± SD)
NCI-N87 = assay: Cancer cell viability; format: cell-based, human; conditions: read-out: IC50 (average ± SD)
[8] = tested on: Ba/F3 cells WT EGFR (+ rhEGF); assay: Ba/F3 cell viability; format: cell-based; conditions: read-out: IC50 (average ± SD)
[9] = tested on: WT EGFR vs all HER2 mutants Ba/F3 cells; assay: Selectivity index from Ba/F3 IC50 ratios; format: cell-based; conditions: average over HER2 mutants
[10] = tested on: HER YVMA Ba/F3 cells containing a concurrent C805S mutation; assay: Ba/F3 cell viability, concurrent C805S mutation; format: cell-based; conditions: HER YVMA Ba/F3 cells with concurrent C805S mutation
DFCI 315 [11] = assay: Patient-derived tumor spheroid viability; format: cell-based, human; conditions: read-out: IC50 (average ± SD); DFCI 315, NSCLC, HER2 ins, 6 days
[12] = Pharmacokinetic properties in mice; format: in vivo
Calu-3 tumors [13] = assay: Calu-3 xenograft efficacy; format: in vivo; conditions: Calu-3 in NCr nude mice, oral, 39 days; JBJ-08-178-01 at 50 mg/kg BID
Calu-3 tumors [14] = assay: TUNEL assay in Calu-3 tumors; format: in vivo, NCr nude mice; conditions: 50 mg/kg BID, 3 days dosing
Calu-3 [15] = assay: Caspase-3/7 activity, live-cell imaging; format: cell-based, human; conditions: Calu-3, live-cell imaging, 3 days
DFCI 315 [16] = assay: AO/PI live/dead staining of tumor spheroids; format: cell-based, human; conditions: DFCI 315 tumor spheroids, 5 days
WT HER2 = WT HER2 (Homo sapiens, UniProt P04626); conditions: purified kinase 5 nmol/L, 100 μmol/L ATP
[17] = tested on: Ba/F3 cells harboring various HER2 exon 20 insertions or amplification; conditions: read-out: IC50 across all exon 20 mutants or amplification, cell growth
HER2 [18] = target: T1, HER2 (Homo sapiens, UniProt P04626); conditions: Calu-3 cells, in the presence of cycloheximide
HER2 [19] = target: T1, HER2; conditions: Calu-3 cells
[20] = Ba/F3 WT EGFR (+ rhEGF 10 ng/mL), 3 days
[21] = Ba/F3 HER2 A775_G776insYVMA, 3 days
[22] = Ba/F3 HER2 P780_Y781insGSP, 3 days
[23] = Ba/F3 HER2 G776delinsVC, 3 days
[24] = Ba/F3 HER2 M774delinsWLV, 3 days
[25] = Ba/F3 HER2 amplification, 3 days

T1 sequence (P04626 23-1255): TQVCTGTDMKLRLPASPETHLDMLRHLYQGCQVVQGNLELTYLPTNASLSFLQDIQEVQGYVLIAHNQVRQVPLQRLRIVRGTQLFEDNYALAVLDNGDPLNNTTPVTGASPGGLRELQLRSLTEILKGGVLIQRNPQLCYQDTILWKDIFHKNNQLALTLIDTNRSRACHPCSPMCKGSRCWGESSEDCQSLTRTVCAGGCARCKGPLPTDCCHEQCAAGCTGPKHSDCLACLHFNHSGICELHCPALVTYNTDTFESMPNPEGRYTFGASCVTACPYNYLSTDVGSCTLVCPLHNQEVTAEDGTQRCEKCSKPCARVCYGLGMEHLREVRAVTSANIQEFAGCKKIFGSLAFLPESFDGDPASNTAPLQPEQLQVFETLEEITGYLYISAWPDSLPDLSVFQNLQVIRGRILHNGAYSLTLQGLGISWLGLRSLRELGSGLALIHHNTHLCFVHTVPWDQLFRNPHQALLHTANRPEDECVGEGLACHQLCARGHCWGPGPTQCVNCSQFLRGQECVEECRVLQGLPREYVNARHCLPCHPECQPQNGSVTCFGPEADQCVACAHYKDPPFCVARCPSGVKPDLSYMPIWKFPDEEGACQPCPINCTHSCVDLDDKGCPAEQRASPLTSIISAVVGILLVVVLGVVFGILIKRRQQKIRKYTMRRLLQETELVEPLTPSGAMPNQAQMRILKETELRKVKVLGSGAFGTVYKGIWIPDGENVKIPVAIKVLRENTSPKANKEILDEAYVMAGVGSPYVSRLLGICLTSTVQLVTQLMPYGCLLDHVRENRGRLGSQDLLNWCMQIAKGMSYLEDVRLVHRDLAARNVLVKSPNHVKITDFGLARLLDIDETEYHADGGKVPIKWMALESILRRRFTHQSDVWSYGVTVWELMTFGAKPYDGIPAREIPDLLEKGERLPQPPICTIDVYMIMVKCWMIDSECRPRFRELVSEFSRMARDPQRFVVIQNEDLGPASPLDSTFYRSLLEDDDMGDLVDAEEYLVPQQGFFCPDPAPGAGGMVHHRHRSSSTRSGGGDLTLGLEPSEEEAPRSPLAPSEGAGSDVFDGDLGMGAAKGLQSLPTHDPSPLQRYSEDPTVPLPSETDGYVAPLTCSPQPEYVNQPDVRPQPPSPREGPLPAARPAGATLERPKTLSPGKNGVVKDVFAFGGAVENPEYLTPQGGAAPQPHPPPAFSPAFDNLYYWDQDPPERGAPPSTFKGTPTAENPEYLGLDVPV
WT HER2, sequence (P04626 720-987 limits assumed): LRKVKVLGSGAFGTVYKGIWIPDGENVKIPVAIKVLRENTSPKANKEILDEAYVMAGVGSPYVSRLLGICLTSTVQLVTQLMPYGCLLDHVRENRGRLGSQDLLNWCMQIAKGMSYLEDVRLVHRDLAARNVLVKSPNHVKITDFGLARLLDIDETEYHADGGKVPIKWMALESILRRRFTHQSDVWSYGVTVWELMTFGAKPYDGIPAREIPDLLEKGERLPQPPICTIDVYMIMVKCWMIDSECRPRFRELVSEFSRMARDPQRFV

For `CN(C)C/C=C/C(=O)Nc1cc2c(Nc3ccc(F)c(Cl)c3)ncnc2cc1O[C@H]1CCOC1` [afatinib], the IC50 ([1]; Mus musculus, BaF3, 72 h) was 2.96 ± 1.29 nM, the IC50 ([2]; Mus musculus, BaF3, 72 h) was 5.17 ± 2.32 nM and the IC50 ([3]; Mus musculus, BaF3, 72 h) was 6.89 ± 6.66 nM. The IC50 ([4]; Mus musculus, BaF3, 72 h) was 8.75 ± 3.74 nM, the IC50 (Ba/F3 cells HER2 S310F; Mus musculus, BaF3, 72 h) was 14.1 ± 20.6 nM and the IC50 (Ba/F3 cells HER2 L755S; Mus musculus, BaF3, 72 h) was 83.2 ± 35.7 nM. The IC50 (Ba/F3 cells HER2 V777L; Mus musculus, BaF3, 72 h) was 3.13 ± 0.21 nM, the IC50 (Ba/F3 cells HER2 V862I; Mus musculus, BaF3, 72 h) was 22.1 ± 10.9 nM and the IC50 ([5]; Mus musculus, BaF3, 72 h) was 1.79 ± 1.39 nM. The IC50 ([6]; Mus musculus, BaF3, 72 h) was 2.75 ± 2.89 nM, the IC50 (MCF7; Homo sapiens, MCF7, 72 h) was 1970 nM and the IC50 (A-431) was 73.9 ± 60.9 nM. The IC50 (H1781; Homo sapiens, NCI-H1781, 72 h) was 169 ± 84.6 nM, the IC50 (H1819) was 29.5 ± 19.5 nM and the IC50 (Calu-3 [7]) was 162 ± 110 nM. It also gave an IC50 (DFCI 429; Homo sapiens, 72 h) of 163 ± 153 nM, an IC50 (BT-474; Homo sapiens, BT-474, 72 h) of 175 ± 136 nM and an IC50 (SKBR3; Homo sapiens, SK-BR-3, 72 h) of 117 ± 105 nM. For the same molecule, the IC50 (NCI-N87; Homo sapiens, NCI-N87, 72 h) was 1.7 ± 0.2 nM.

`CS(=O)(=O)CCNCc1ccc(-c2ccc3ncnc(Nc4ccc(OCc5cccc(F)c5)c(Cl)c4)c3c2)o1` [lapatinib] gave an IC50 ([8]; Mus musculus, BaF3, 72 h) of 302 ± 64.8 nM, an IC50 ([1]; Mus musculus, BaF3, 72 h) of 202 ± 70.2 nM and an IC50 ([2]; Mus musculus, BaF3, 72 h) of 210 ± 56 nM. The IC50 ([3]; Mus musculus, BaF3, 72 h) was 65.3 ± 49.7 nM, the IC50 ([4]; Mus musculus, BaF3, 72 h) was 621 ± 333 nM and the IC50 (Ba/F3 cells HER2 S310F; Mus musculus, BaF3, 72 h) was 530 ± 407 nM. For the same molecule, the IC50 (Ba/F3 cells HER2 L755S; Mus musculus, BaF3, 72 h) was 845 ± 381 nM, the IC50 (Ba/F3 cells HER2 V777L; Mus musculus, BaF3, 72 h) was 13.1 ± 5.79 nM and the IC50 (Ba/F3 cells HER2 V862I; Mus musculus, BaF3, 72 h) was 336 ± 74.5 nM. The IC50 ([5]; Mus musculus, BaF3, 72 h) was 130 ± 18 nM, the IC50 ([6]; Mus musculus, BaF3, 72 h) was 177 ± 88.6 nM and the IC50 (MCF7; Homo sapiens, MCF7, 72 h) was 6790 nM. It also gave an IC50 (H1781; Homo sapiens, NCI-H1781, 72 h) of 2420 nM, an IC50 (H1819) of 341 ± 171 nM and an IC50 (Calu-3 [7]) of 248 ± 220 nM. It also gave an IC50 (BT-474; Homo sapiens, BT-474, 72 h) of 3780 nM, an IC50 (SKBR3; Homo sapiens, SK-BR-3, 72 h) of 5390 nM and an IC50 (NCI-N87; Homo sapiens, NCI-N87, 72 h) of 16.3 ± 6.6 nM.

In the case of `C=CC(=O)N1CCC[C@@H](n2nc(C(=O)Nc3ccc(CC(=O)N(C)C)c(C)c3C)c3c(N)ncnc32)C1` [TAS0728], the IC50 [8, 20] is reported as 399 ± 77.3 nM, the IC50 [1, 21] is reported as 256 ± 175 nM and the IC50 [2, 22] is reported as 80.1 ± 27 nM. The IC50 [3, 23] was 626 ± 130 nM, the IC50 [4, 24] was 894 ± 509 nM and the IC50 (Ba/F3 cells HER2 S310F; Ba/F3 HER2 S310F, 3 days) was 238 ± 95 nM. The IC50 (Ba/F3 cells HER2 L755S; Ba/F3 HER2 L755S, 3 days) was 3760 ± 3080 nM, the IC50 (Ba/F3 cells HER2 V777L; Ba/F3 HER2 V777L, 3 days) was 19.2 ± 12.2 nM and the IC50 (Ba/F3 cells HER2 V862I; Ba/F3 HER2 V862I, 3 days) was 1320 ± 506 nM. The IC50 [6, 25] was 288 ± 20.6 nM and the “Selectivity index (IC50 ratio = WT EGFR ÷ all HER2 mutants)” value [9] was 0.48.

Work on `CCOc1cc2ncc(C#N)c(Nc3ccc(Oc4ccn5ncnc5c4)c(C)c3)c2cc1NC(=O)/C=C/CN(C)C` [JBJ-08-178-01] yielded an IC50 [8, 20] of 368 ± 103 nM, an IC50 [1, 21] of 13.6 ± 2.24 nM and an IC50 [2, 22] of 7.38 ± 2.66 nM. For the same molecule, the IC50 [3, 23] was 6.01 ± 2.94 nM, the IC50 [4, 24] was 21 ± 12 nM and the IC50 (Ba/F3 cells HER2 S310F; Ba/F3 HER2 S310F, 3 days) was 41.5 ± 13.4 nM. It also gave an IC50 (Ba/F3 cells HER2 L755S; Ba/F3 HER2 L755S, 3 days) of 140 ± 45.3 nM, an IC50 (Ba/F3 cells HER2 V777L; Ba/F3 HER2 V777L, 3 days) of 2.71 ± 0.41 nM and an IC50 (Ba/F3 cells HER2 V862I; Ba/F3 HER2 V862I, 3 days) of 284 ± 118 nM. The IC50 ([5]; Ba/F3 HER2 755_757LREdelinsRP, 3 days) was 7.24 ± 2.28 nM, the IC50 [6, 25] was 15.3 ± 11.4 nM and the “Selectivity index (IC50 ratio = WT EGFR ÷ all HER2 mutants)” value [9] was 6.8 and 6.83. The growth inhibition [10] was “did not inhibit the growth”, the IC50 (MCF7; MCF7, breast cancer, no ERBB mutation, 72 h) was 967 ± 429 nM and the IC50 (A-431) was 378 ± 77.1 nM. It also gave an IC50 (H1781; H1781, NSCLC, HER2 ins, 72 h) of 151 ± 52.7 nM, an IC50 (DFCI 429; DFCI 429, NSCLC, HER2 amp, 3 days) of 252 ± 179 nM and an IC50 (DFCI 315 [11]) of 456 ± 117 nM. It also gave an IC50 (BT-474; BT-474, breast cancer, HER2 amp, 72 h) of 43.7 ± 11.1 nM, an IC50 (SKBR3; SKBR3, breast cancer, HER2 amp, 72 h) of 79.4 ± 56.5 nM and an IC50 (NCI-N87; NCI-N87, HER2 amp, 72 h) of 1.2 nM. For the same molecule, the AUCINF_obs ([12]; IV (2 mg/kg)) was 323,166 min*ng/mL, the AUClast ([12]; IV (2 mg/kg)) was 317,601 min*ng/mL and the CI_obs ([12]; IV (2 mg/kg)) was 6.26 mL/min/kg. For the same molecule, the Cmax ([12]; IV (2 mg/kg)) was 5.68 µM, the MRTINF_obs ([12]; IV (2 mg/kg)) was 1.42 h and the T1/2 ([12]; IV (2 mg/kg)) was 1.41 h. The Tmax ([12]; IV (2 mg/kg)) was 0.36 h, the Vss_obs ([12]; IV (2 mg/kg)) was 0.5 L/kg and the AUCINF_obs ([12]; PO (10 mg/kg)) was 243,219 min*ng/mL. For the same molecule, the AUClast ([12]; PO (10 mg/kg)) was 166,787 min*ng/mL, the CI_obs ([12]; PO (10 mg/kg)) was 48.87 mL/min/kg and the Cmax ([12]; PO (10 mg/kg)) was 1.12 µM. The F ([12]; PO (10 mg/kg)) was 10%, the T1/2 ([12]; PO (10 mg/kg)) was 3.65 h and the Tmax ([12]; PO (10 mg/kg)) was 2.33 h. The tumor growth (Calu-3 tumors [13]) was “comparable tumor regression with neratinib”, the “cell apoptosis (TUNEL)” value (Calu-3 tumors [14]) was “significantly increased cell apoptosis compared with vehicle” and the “apoptosis (caspase-3/7)” value (Calu-3 [15]) was “rapid and greater degree of apoptosis compared with cells treated with poziotinib, neratinib, or tucatinib”. For the same molecule, the PI-positive dead cells (DFCI 315 [16]) was “significantly increased PI-positive dead cells”, the “inhibition of WT HER2 in biochemical inhibition assays” value (WT HER2) was “potently inhibited WT HER2” and the IC50 [17] was under 50 nM. For the same molecule, the “protein stability of HER2” value (HER2 [18]) was “decreased protein stability of HER2 compared with vehicle” and the “HER2 endocytosis (pHrodo fluorescence signal)” value (HER2 [19]) was “dramatic increase of fluorescence signal in the cytoplasm”.
